Reference: article PMC8115619, “Generation of a chemical genetic model for JAK3” (Scientific Reports, 2021)

Tests used:
[1] = tested on: IFNβ induced STAT1 phosphorylation in BMDMs; experiment: IFNβ induced STAT1 phosphorylation in macrophages; type: cell-based, mouse; conditions: wild type BMDMs, 10 μM inhibitor 2 h, 10 ng/ml IFNβ
Method: (A) BMDMs were isolated from wild type mice. Cells were incubated with the indicated inhibitors in μM for 2 h before stimulation with 10 ng/ml IL-4 for 30 min. The levels of phosphorylated STAT6 were then determined by immunoblotting. (B) As (A) except cells were stimulated 10 ng/ml GM-CSF and the levels of phosphorylated STAT5 determined. (C) As (A) except cells were stimulated 10 ng/ml IL-10 and the levels of phosphorylated STAT3 determined. (D) As (A) except cells were stimulated 10 ng/ml IFNβ and the levels of phosphorylated STAT1 determined. For A–D, levels of ERK1/2 were determined as a loading control.
Bone marrow derived macrophages (BMDMs) were cultured as described. Briefly, bone marrow was flushed in PBS from the femurs and tibias of mice. […]
Cells were lysed directly into SDS sample buffer and aliquots run on 10% polyacrylamide gels using standard methods. Proteins were transferred onto nitrocellulose membranes, and specific proteins were detected by immunoblotting. […] Bands were detected using Clarity ECL reagents from BioRad and imaged on a Licor Odyssey Fc system. Quantification was carried out using Licor Image Studio software. After correction for the ERK1/2 levels to account for loading differences, percentage inhibition was calculated relative to the IL-4 stimulated condition. IC50 values were calculated using the same methods as for the in vitro IC50 values.

[2] = tested on: IL-4 induced STAT6 phosphorylation in JAK3 Cys905Ser knockin BMDMs; experiment: Inhibitor washout, IL-4 induced STAT6 phosphorylation, JAK3 Cys905Ser knockin BMDMs; type: cell-based, mouse; conditions: inhibitor 2 h, washed 3 times in PBS; 10 μM TL6-144, 100 μM PF-06651600
Method: To test this, cells were treated with a high concentration of inhibitor for 2 h before being washed 3 times in PBS and then incubated in media without inhibitor for 0.5 to 24 h. […] To confirm this was not the case, similar experiments were done in JAK3 Cys905Ser knockin cells.
BMDMs were isolated from wild type and JAK3 Cys905Ser knockin mice. […] The macrophages were then either stimulated with 10 ng/ml IL-4 for 30 min or washed 3 times in PBS and then incubated in media without inhibitor for the indicated times. The cells were then stimulated with IL-4 for 30 min and STAT6 phosphorylation determined by immunoblotting using levels of ERK1/2 as a loading control.
Briefly, bone marrow was flushed in PBS from the femurs and tibias of mice. Cells were cultured on bacterial grade plastic for 7 days at 37 °C, 5% CO2. […]
Cells were lysed directly into SDS sample buffer and aliquots run on 10% polyacrylamide gels using standard methods[51]. Proteins were transferred onto nitrocellulose membranes, and specific proteins were detected by immunoblotting. […] Bands were detected using Clarity ECL reagents from BioRad and imaged on a Licor Odyssey Fc system. Quantification was carried out using Licor Image Studio software. After correction for the ERK1/2 levels to account for loading differences, percentage inhibition was calculated relative to the IL-4 stimulated condition.

SIK2 = SIK2 (Homo sapiens, UniProt Q9H0K1); experiment: Selectivity screen SIK2; type: biochemical; conditions: 1 µM inhibitor, mean
Method: (§1) For the in vitro kinase assay, JAK3 (5–20 mU diluted in 50 mM Tris pH 7.5, 0.1 mM EGTA, 0.05% β-mercaptoethanol, 1 mg/ml BSA) was assayed against PDKtide ([…]) in a final volume of 25.5 µl containing 50 mM Tris pH 7.5, 0.1 mM EGTA, 0.05% β-mercaptoethanol, 100 µM substrate peptide, 10 mM magnesium acetate and 0.02 mM [33P-γ-ATP] (50–1000 cpm/pmole) and incubated for 30 min at room temperature. Assays were started by the addition of the ATP and stopped by addition of 5 µl of 0.5 M (3%) orthophosphoric acid and then harvested onto P81 Unifilter plates with a wash buffer of 50 mM orthophosphoric acid. To determine the Km for ATP, assays were run using 1, 5, 10, 20, 50, 100, 200, 400, 500 μM ATP and Km derived by non-linear regression fitting to the Michaelis–Menten equation v = Vmax[S]/(Km + [S]). IC50 values for inhibitors via non-linear regression using a parameter model: Y = Bottom + (Top–Bottom)/(1 + (IC50/X)^HillSlope). Non-linear regression was carried out in Prism (version 8). In vitro selectivity screen was carried out as described previously.

ASK1 = ASK1 (Homo sapiens, UniProt Q99683); experiment: Selectivity screen ASK1; type: biochemical; conditions: 1 µM inhibitor, mean
CK1δ = CK1δ (Homo sapiens, UniProt P48730); experiment: Selectivity screen CK1δ; type: biochemical; conditions: 1 µM inhibitor, mean
Method: as §1

PIM2 = PIM2 (Homo sapiens, UniProt Q9P1W9); experiment: Selectivity screen PIM2; type: biochemical; conditions: 1 µM inhibitor, mean
Method: as §1

MARK2 = MARK2 (Homo sapiens, UniProt Q7KZI7); experiment: Selectivity screen MARK2; type: biochemical; conditions: 1 µM inhibitor, mean
Method: as §1

ZAP70 = ZAP70 (Homo sapiens, UniProt P43403); experiment: Selectivity screen ZAP70; type: biochemical; conditions: 1 µM inhibitor, mean
Method: as §1

p38b MAPK = p38b MAPK (Homo sapiens, UniProt Q15759); experiment: Selectivity screen p38b MAPK; type: biochemical; conditions: 1 µM inhibitor, mean
Method: as §1

NEK2a = NEK2a (Homo sapiens, UniProt P51955); experiment: Selectivity screen NEK2a; type: biochemical; conditions: 1 µM inhibitor, mean
Method: as §1

MAP4K5 = MAP4K5 (Homo sapiens, UniProt Q9Y4K4); experiment: Selectivity screen MAP4K5; type: biochemical; conditions: 1 µM inhibitor, mean
Method: as §1

MST4 = MST4 (Homo sapiens, UniProt Q9P289); experiment: Selectivity screen MST4; type: biochemical; conditions: 1 µM inhibitor, mean
Method: as §1

DYRK2 = DYRK2 (Homo sapiens, UniProt Q92630); experiment: Selectivity screen DYRK2; type: biochemical; conditions: 1 µM inhibitor, mean
Method: as §1

MAP4K3 = MAP4K3 (Homo sapiens, UniProt Q8IVH8); experiment: Selectivity screen MAP4K3; type: biochemical; conditions: 1 µM inhibitor, mean
Method: as §1

PAK5 = PAK5 (Homo sapiens, UniProt Q9P286); experiment: Selectivity screen PAK5; type: biochemical; conditions: 1 µM inhibitor, mean
Method: as §1

LKB1 = LKB1 (Homo sapiens, UniProt Q15831); experiment: Selectivity screen LKB1; type: biochemical; conditions: 1 µM inhibitor, mean
Method: as §1

ULK2 = ULK2 (Homo sapiens, UniProt Q8IYT8); experiment: Selectivity screen ULK2; type: biochemical; conditions: 1 µM inhibitor, mean
Method: as §1

CAMKKb = CAMKKb (Homo sapiens, UniProt Q96RR4); experiment: Selectivity screen CAMKKb; type: biochemical; conditions: 1 µM inhibitor, mean
CDK9-Cyclin T1 = CDK9-Cyclin T1 (Homo sapiens, UniProt P50750); experiment: Selectivity screen CDK9-Cyclin T1; type: biochemical; conditions: 1 µM inhibitor, mean
Method: as §1

Chain of DYRK2 (Q92630 whole entry): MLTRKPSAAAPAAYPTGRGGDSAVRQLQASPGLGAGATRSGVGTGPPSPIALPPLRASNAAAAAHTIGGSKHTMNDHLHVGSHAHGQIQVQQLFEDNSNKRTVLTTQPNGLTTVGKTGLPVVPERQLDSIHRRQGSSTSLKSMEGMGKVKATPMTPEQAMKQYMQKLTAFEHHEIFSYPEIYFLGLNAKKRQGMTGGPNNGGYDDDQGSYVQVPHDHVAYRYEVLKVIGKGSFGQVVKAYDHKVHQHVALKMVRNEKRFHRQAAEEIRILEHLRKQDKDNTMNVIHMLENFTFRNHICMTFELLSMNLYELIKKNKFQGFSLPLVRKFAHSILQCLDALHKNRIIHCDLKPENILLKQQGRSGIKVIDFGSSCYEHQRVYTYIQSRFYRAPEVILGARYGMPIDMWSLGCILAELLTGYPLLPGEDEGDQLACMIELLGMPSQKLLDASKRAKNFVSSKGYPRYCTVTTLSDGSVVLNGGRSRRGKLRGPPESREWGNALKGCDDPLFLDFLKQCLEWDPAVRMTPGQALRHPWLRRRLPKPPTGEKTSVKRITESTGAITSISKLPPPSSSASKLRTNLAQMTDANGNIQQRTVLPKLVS
Chain of SIK2 (Q9H0K1 whole entry): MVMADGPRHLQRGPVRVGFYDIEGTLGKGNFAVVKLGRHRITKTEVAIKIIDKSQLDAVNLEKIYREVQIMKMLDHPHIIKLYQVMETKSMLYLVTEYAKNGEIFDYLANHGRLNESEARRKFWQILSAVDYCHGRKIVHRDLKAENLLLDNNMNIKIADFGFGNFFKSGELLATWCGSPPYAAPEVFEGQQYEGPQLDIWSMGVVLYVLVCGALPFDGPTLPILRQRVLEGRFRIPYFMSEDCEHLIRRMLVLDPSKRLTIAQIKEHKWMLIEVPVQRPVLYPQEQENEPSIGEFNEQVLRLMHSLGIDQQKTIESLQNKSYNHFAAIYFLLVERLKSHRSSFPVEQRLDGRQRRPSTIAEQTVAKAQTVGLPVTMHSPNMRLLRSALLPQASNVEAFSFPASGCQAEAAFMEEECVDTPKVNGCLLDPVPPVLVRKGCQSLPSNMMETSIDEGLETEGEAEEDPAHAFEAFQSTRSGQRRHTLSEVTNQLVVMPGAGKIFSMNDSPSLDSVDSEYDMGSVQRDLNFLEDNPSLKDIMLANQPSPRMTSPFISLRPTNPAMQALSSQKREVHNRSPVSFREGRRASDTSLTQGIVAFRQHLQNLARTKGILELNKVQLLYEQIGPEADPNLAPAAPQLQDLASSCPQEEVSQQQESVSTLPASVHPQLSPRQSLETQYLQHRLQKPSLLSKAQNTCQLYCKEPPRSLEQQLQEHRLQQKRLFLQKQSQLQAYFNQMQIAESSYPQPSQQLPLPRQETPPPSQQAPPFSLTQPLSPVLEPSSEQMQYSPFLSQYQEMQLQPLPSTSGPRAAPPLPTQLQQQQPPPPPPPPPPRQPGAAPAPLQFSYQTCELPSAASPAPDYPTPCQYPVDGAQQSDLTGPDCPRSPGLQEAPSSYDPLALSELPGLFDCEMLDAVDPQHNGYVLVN
Chain of CDK9-Cyclin T1 (P50750 whole entry): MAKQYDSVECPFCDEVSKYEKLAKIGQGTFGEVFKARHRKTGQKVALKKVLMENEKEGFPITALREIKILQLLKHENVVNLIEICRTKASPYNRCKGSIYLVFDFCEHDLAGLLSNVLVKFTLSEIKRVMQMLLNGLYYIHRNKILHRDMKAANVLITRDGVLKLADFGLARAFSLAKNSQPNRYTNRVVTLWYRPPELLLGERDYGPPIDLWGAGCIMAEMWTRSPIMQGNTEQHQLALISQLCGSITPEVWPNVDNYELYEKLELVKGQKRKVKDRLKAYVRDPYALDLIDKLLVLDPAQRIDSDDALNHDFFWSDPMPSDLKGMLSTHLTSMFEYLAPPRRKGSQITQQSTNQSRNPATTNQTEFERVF
Chain of CDK9-Cyclin T1 (O60563 whole entry partner): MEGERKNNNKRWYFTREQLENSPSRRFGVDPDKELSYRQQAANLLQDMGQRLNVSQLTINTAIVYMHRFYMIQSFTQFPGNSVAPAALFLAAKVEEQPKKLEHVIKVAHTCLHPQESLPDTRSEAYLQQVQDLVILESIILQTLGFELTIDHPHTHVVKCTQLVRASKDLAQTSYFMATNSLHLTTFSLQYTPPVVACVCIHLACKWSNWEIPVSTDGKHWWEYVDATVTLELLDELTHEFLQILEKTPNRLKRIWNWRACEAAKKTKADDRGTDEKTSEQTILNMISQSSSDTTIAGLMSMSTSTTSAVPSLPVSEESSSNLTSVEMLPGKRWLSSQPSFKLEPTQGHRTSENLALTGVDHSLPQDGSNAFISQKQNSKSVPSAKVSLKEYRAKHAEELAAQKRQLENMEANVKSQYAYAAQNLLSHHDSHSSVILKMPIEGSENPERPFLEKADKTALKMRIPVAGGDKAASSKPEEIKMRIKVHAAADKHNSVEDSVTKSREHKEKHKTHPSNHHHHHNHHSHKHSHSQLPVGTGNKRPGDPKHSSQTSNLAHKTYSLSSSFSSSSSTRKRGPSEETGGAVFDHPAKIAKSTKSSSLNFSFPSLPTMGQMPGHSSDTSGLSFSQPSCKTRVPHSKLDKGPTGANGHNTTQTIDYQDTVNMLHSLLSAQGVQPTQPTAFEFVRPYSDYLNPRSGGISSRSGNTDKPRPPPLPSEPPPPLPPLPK
Chain of MAP4K3 (Q8IVH8 whole entry): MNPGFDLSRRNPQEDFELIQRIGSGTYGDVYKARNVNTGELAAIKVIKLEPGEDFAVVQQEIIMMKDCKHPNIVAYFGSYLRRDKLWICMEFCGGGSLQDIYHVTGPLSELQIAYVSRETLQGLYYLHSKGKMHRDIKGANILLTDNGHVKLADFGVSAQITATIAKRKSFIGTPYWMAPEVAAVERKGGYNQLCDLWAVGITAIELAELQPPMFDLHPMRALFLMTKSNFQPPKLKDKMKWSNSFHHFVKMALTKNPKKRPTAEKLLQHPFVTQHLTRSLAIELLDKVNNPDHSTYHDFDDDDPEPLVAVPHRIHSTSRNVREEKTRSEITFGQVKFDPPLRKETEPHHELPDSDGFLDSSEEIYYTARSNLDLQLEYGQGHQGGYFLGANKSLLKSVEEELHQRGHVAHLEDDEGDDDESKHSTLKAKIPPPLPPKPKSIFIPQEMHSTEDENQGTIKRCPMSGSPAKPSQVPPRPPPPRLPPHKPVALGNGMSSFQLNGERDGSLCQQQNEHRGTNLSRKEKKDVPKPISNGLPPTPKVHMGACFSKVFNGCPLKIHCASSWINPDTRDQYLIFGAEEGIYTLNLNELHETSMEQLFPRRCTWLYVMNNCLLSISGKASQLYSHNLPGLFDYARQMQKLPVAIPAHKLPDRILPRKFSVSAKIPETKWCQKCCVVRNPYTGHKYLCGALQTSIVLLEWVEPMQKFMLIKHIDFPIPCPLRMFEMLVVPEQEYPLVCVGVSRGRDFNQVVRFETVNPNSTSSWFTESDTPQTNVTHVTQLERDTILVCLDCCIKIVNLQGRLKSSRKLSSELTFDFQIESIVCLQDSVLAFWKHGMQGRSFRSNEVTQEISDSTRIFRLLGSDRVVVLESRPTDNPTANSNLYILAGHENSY
Chain of MAP4K5 (Q9Y4K4 whole entry): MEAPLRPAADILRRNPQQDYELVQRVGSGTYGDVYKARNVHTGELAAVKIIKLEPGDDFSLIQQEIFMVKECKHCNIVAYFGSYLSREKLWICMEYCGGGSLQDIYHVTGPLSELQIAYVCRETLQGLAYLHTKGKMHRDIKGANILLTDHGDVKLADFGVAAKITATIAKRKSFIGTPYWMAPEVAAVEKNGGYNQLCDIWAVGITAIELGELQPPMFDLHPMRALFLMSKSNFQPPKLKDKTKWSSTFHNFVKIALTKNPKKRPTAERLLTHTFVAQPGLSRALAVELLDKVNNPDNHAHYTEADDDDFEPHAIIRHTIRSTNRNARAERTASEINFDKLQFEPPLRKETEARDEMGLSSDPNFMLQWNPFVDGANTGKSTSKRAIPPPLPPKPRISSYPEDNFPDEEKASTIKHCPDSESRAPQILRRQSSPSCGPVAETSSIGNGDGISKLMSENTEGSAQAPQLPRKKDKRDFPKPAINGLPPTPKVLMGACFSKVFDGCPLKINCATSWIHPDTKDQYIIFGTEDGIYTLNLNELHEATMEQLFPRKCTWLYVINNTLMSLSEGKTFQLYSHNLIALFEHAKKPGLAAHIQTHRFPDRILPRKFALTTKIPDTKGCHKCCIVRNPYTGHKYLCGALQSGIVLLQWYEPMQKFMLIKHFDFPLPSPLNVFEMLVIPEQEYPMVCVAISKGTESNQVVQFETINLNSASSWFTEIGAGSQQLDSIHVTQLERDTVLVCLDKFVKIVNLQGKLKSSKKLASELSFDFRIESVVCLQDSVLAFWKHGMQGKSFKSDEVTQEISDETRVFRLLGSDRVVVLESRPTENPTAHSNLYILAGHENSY
Chain of CK1δ (P48730 whole entry): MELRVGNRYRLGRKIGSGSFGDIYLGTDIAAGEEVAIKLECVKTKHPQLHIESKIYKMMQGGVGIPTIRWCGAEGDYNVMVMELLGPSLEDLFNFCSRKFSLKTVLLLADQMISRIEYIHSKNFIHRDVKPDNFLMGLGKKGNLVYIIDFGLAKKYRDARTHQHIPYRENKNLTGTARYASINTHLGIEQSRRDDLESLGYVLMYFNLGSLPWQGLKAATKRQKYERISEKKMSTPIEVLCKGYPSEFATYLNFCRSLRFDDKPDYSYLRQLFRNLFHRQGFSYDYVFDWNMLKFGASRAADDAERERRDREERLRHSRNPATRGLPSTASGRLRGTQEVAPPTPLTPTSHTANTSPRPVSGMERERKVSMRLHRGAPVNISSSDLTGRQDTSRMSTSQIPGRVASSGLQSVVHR

| Compound | inhibition of IFNβ induced STAT1 phosphorylation [1] | inhibition of IL-4 induced STAT6 phosphorylation after inhibitor washout, JAK3 Cys905Ser knockin BMDMs [2] | activity remaining in the presence of the inhibitor: SIK2 (SIK2) | activity remaining in the presence of the inhibitor: ASK1 (ASK1) | activity remaining in the presence of the inhibitor: CK1δ (CK1δ) | activity remaining in the presence of the inhibitor: PIM2 (PIM2) | activity remaining in the presence of the inhibitor: MARK2 (MARK2) | activity remaining in the presence of the inhibitor: ZAP70 (ZAP70) | activity remaining in the presence of the inhibitor: p38b MAPK (p38b MAPK) | activity remaining in the presence of the inhibitor: NEK2a (NEK2a) | activity remaining in the presence of the inhibitor: MAP4K5 (MAP4K5) | activity remaining in the presence of the inhibitor: MST4 (MST4) | activity remaining in the presence of the inhibitor: DYRK2 (DYRK2) | activity remaining in the presence of the inhibitor: MAP4K3 (MAP4K3) | activity remaining in the presence of the inhibitor: PAK5 (PAK5) | activity remaining in the presence of the inhibitor: LKB1 (LKB1) | activity remaining in the presence of the inhibitor: ULK2 (ULK2) | activity remaining in the presence of the inhibitor: CAMKKb (CAMKKb) | activity remaining in the presence of the inhibitor: CDK9-Cyclin T1 (CDK9-Cyclin T1) |
| --- | --- | --- | --- | --- | --- | --- | --- | --- | --- | --- | --- | --- | --- | --- | --- | --- | --- | --- | --- |
| C=CC(=O)N1C[C@H](Nc2ncnc3[nH]ccc23)CC[C@@H]1C [PF-06651600, 1-((2S,5R)-5-((7H-Pyrrolo[2,3-d]pyrimidin-4-yl)amino)-2-methylpiperidin-1-yl)prop-2-en-1-one, reference compound] | did not block | not retained at any time post washout |  |  |  |  |  |  |  |  |  |  |  |  |  |  |  |  |  |
| C=CC(=O)Nc1cccc(CNc2nc(Nc3ccc(N4CCN(C)CC4)cc3OC)ncc2Cl)c1 [TL6-144] |  | complete loss of inhibition | 58 | 108 | 83 | 97 | 84 | 86 | 93 | 96 | 83 | 107 | 92 | 83 | 94 | 91 | 63 | 6 | 95 |
| C=CC(=O)Nc1cccc(CNc2nc(Nc3ccc(N4CCOCC4)cc3)ncc2Cl)c1 [TL8-52] | Some inhibition |  | 31 | 93 | 110 | 100 | 37 | 77 | 96 | 135 | 63 | 96 | 87 | 55 | 90 | 132 | 92 | 22 | 80 |
